{"source": "PubChem BioAssay AID720587", "about": "(Broad Institute, 2013)", "data": [{"tested_on": "A673 Ewing sarcoma viability, CellTiter-Glo ATP luminescence, 72 h", "assay": "A673 Ewing sarcoma viability loss – cell-based, CellTiter-Glo luminescence, cherry-pick retest, confirmation (AID 720587)", "units": {"AC35": "µM"}, "values": [{"smiles": "C[C@@H]1CN([C@@H](C)CO)C(=O)Cc2cc(NC(=O)Nc3ccc(C(F)(F)F)cc3)ccc2O[C@@H]1CN(C)Cc1ccc(C(=O)Nc2ccccc2N)cc1", "AC35": 10.9}, {"smiles": "Cc1ccc(S(=O)(=O)Nc2ccc3c(c2)C(=O)N([C@@H](C)CO)C[C@H](C)[C@@H](CN(C)Cc2ccc(C(F)(F)F)cc2)OCCCC[C@@H](C)O3)cc1", "AC35": 13.8}, {"smiles": "O=C(Nc1ccc(Br)cc1)c1ccc(F)c(S(=O)(=O)N2CCN(c3ccccn3)CC2)c1", "AC35": 9.42}, {"smiles": "COc1ccc(CC(N)c2csc(NC(=O)Nc3cccc(C(F)(F)F)c3)n2)cc1", "note": "(stereo not given)", "AC35": 6.74}, {"smiles": "Cc1sc2nc(CN3CCC(C)CC3)nc(Cl)c2c1C", "AC35": 10.7}, {"smiles": "COC(=O)C[C@@H]1CC[C@@H]2[C@@H](COc3ccc(NC(=O)Nc4cccc(Cl)c4)cc3C(=O)N2C)O1", "AC35": 10.3}, {"smiles": "CC(C)(C)c1ccc(Oc2ccc(N)cn2)cc1", "AC35": 5.13}, {"smiles": "Oc1cccc(-c2nnc(-c3cccc(O)c3)nn2)c1", "AC35": 11.9}, {"smiles": "COc1ccc(NC(=O)N2CCCCN3[C@H](CO)[C@H](c4ccc(C#CCC(C)C)cc4)[C@H]3C2)cc1", "AC35": 6.47}, {"smiles": "C[C@H]1CCCCO[C@H](CN(C)Cc2ccc(C(F)(F)F)cc2)[C@@H](C)CN([C@@H](C)CO)C(=O)c2cc(NC(=O)Nc3ccccc3)ccc2O1", "AC35": 12.6}, {"smiles": "C[C@@H]1O[C@@H](O[C@@H]2C=C3CC[C@@H]4C(CC[C@]5(C)[C@@H](c6ccc(=O)oc6)CC[C@]45O)[C@@]3(C)CC2)[C@H](O)[C@H](O)[C@H]1O", "note": "(stereo not given in full)", "AC35": 0.0233}, {"smiles": "COC(=O)C1=C(C)N(Cc2ccccc2C(F)(F)F)C(=NCc2ccc(OC)cc2)NC1c1ccc(C(F)(F)F)cc1", "note": "(stereo not given)", "AC35": 13.1}, {"smiles": "O=C(N/N=C/c1cnc(N2CCCCC2)s1)c1ccc(C(F)(F)F)cc1", "AC35": 13.8}, {"smiles": "Cc1cc(C)cc(C(=O)NC(=S)Nc2ccc(Cc3ccncc3)cc2)c1", "AC35": 14.2}, {"smiles": "COc1ccc(-c2ccc3c(c2)[C@H]2[C@H](CCN2S(=O)(=O)c2ccc(OC)cc2)[C@@H](CO)N3C)cc1", "AC35": 6.76}, {"smiles": "CCc1ccc(N2C=C(C(=O)OC)C(c3ccc(OC)cc3)C(C#N)=C2N)cc1", "note": "(stereo not given)", "AC35": 12.5}, {"smiles": "C(=NNc1ccc2ccccc2n1)c1ccccn1", "AC35": 0.514}, {"smiles": "CC1=NN(c2ccccc2)C(=O)/C1=C\\C=C\\c1ccccc1", "AC35": 3.99}, {"smiles": "CCNC(=O)c1cc2c(c(-c3cccc(-c4cccc(OC)c4)c3)n1)[C@H](CCO)N([S@@](=O)C(C)(C)C)C2", "AC35": 5.13}, {"smiles": "N#C[C@H]1N[C@H](CO)[C@H]1c1ccc(C#Cc2ccc(F)cc2)cc1", "AC35": 20.2}, {"smiles": "C[C@H](CO)N1C[C@H](C)[C@H](CN(C)Cc2ccc(C(=O)Nc3ccccc3N)cc2)Oc2ccc(N(C)C)cc2CC1=O", "AC35": 3.83}, {"smiles": "C(=Cc1cnc2ccccc2n1)c1ccc2c(c1)OCO2", "AC35": 8.73}, {"smiles": "COC(=O)C[C@H]1CC[C@@H](NC(=O)Nc2ccc(C(F)(F)F)cc2)[C@H](CO)O1", "AC35": 18.9}, {"smiles": "C[C@@H]1CN([C@@H](C)CO)C(=O)c2cc(NC(=O)Nc3ccccc3)ccc2O[C@@H]1CN(C)Cc1ccc(C(=O)Nc2ccccc2N)cc1", "AC35": 7.56}, {"smiles": "O=C1c2ccc3c4c(ccc(c24)C(=O)N1c1cccc(O)c1)C(=O)N(c1cccc(O)c1)C3=O", "AC35": 2.47}, {"smiles": "COc1ccc(OC)c(-c2nnc3n2N=C(c2ccc(OC)c(OC4CCOC4)c2)CS3)c1", "note": "(stereo not given)", "AC35": 3.24}, {"smiles": "C=C1C(=O)OC2C1CCC(C)C1(O)C=CC(=O)C21C", "note": "(stereo not given)", "AC35": 6.43}, {"smiles": "CC1(C)N=C(N)N=C(N)N1c1ccc(OCCCOc2ccccc2)c(Cl)c1", "AC35": 1.48}, {"smiles": "CC1OC(OC2CC(O)C3(CO)C4C(O)CC5(C)C(C6=CC(=O)OC6)CCC5(O)C4CCC3(O)C2)C(O)C(O)C1O", "note": "(stereo not given)", "AC35": 0.105}, {"smiles": "C[C@@H]1CN([C@H](C)CO)C(=O)Cc2cc(NC(=O)CCCCCC(=O)Nc3ccccc3N)ccc2O[C@@H]1CN(C)CC1CCCCC1", "AC35": 13.4}, {"smiles": "CCN1CCS/C1=C\\C=C\\C1=[N+](CC)CCS1", "AC35": 16.1}, {"smiles": "O=C(C[C@@H]1C[C@H]2c3cc(NS(=O)(=O)c4ccc(F)cc4)ccc3O[C@H]2[C@H](CO)O1)NCc1ccc(-c2ccccc2)cc1", "AC35": 4.21}, {"smiles": "O=C(Nc1ccc(F)cc1)N1CCCCN2[C@@H](CO)[C@H](c3ccc(C4=CCCCC4)cc3)[C@@H]2C1", "AC35": 10.2}, {"smiles": "CCCCNC1=CC(=O)C(=O)c2ccccc21", "AC35": 2.77}, {"smiles": "Cc1ccc2c(c1)C(=O)N1[C@H]3c4cc(Br)ccc4OC[C@@H]3[C@H](c3ccccc3)[C@]1(C)C(=O)N2", "AC35": 14.5}, {"smiles": "COc1ccc(CCCNC(=O)C2Cc3c(-c4ccc5c(c4)OCO5)ccnc3O2)cc1", "note": "(stereo not given)", "AC35": 15.8}, {"smiles": "COc1ccc(S(=O)(=O)Nc2ccc3c(c2)C(=O)N([C@H](C)CO)C[C@@H](C)[C@@H](CN(C)Cc2ccc(C(=O)Nc4ccccc4N)cc2)O3)cc1", "AC35": 12.5}, {"smiles": "Cc1ccc(N2C(=O)c3cccc4c(N)ccc(c34)C2=O)c2cccnc12", "AC35": 0.0576}, {"smiles": "CCCN1C/C(=C/c2ccc3c(c2)OCO3)C(=O)/C(=C/c2ccc3c(c2)OCO3)C1", "AC35": 3.77}, {"smiles": "COc1ccc(CN(C)c2ncnc3sccc23)c(OC)c1OC", "AC35": 15.3}, {"smiles": "C[C@@H]1CN([C@@H](C)CO)C(=O)c2cccc(NC(=O)Nc3cccc4ccccc34)c2O[C@@H]1CN(C)Cc1ccc(C(=O)Nc2ccccc2N)cc1", "AC35": 14.8}, {"smiles": "Nc1nc(N)c(-c2cccc(C(F)(F)F)c2)c(Cc2cccc(C(F)(F)F)c2)n1", "AC35": 5.72}, {"smiles": "COc1ccc(/C=C(/C(=O)c2cccs2)N2C=CC=CC2=C(C#N)C#N)cc1", "AC35": 3.97}, {"smiles": "C(=N\\Nc1nc2ccccc2[nH]1)/c1ccccn1", "AC35": 1.74}, {"smiles": "C[C@@H]1CN([C@H](C)CO)C(=O)c2cc(N(C)C)ccc2O[C@H]1CN(C)Cc1ccc(C(=O)Nc2ccccc2N)cc1", "AC35": 16.7}]}]}
